According to patent US9364448B2, “Nitisinone for treatment of oculocutaneous/ocular albinism and for increasing pigmentation” (The United States of America, as represented by the …, priority 2010, dated 2016):
Entries after “also recorded” stand apart in the source; their conditions may differ.

How the values were obtained:
[1] = test system: C57BL/6J-Tyr^c-2J/c-2J mice (OCA1a model); experiment: Coat and ocular pigmentation, clinical examination, Tyr^c-2J/c-2J mice; type: in vivo, mouse; details: one month
Procedure: Animal Husbandry and Clinical Examination. C57BL/6J mice (Stock #000664), C57BL/6JTyr^c-2J/c-2J mice (Stock #000058, MGI ID#1855985), and C57BL/6Tyr^c-h/c-h (Stock #000104, MGI ID#1855979) were obtained from the Jackson Laboratory (Bar Harbor, Me.). Mice were housed according to the institutional Animal Review Board standards with a 14 hour light/10 hour dark cycle. These studies conformed to the principles for laboratory animal research outlined by the Animal Welfare Act (NIH/HHS) and the ARVO Statement for the Use of Animals in Ophthalmic and Vision Research and were approved by the Institutional Animal Care and Use Committee of the National Eye Institute. Clinical examination and imaging of the anterior segment of mice were performed on gently-restrained, awake mice using a Haag-Streit BQ slit lamp and Imaging Module IM900® software (Haag-Streit, Inc., Mason, Ohio). […]
At the beginning of the study, baseline plasma concentrations of tyrosine, coat color (gross and microscopic), anterior segment pigment, and posterior segment pigment were documented for each mouse prior to initiating experiments. […] It is known that a possible side effect of NTBC treatment is corneal irritation, which is monitored daily. […] At the end of four weeks time, plasma tyrosine concentrations were assessed in both treated and control animals. […]

[2] = test system: C57BL/6J-Tyr^c-h/c-h mice (OCA1b model); experiment: Transmission electron microscopy of iris, RPE and choroid, Tyr^c-h/c-h mice; type: in vivo, mouse; details: treated vs controls, statistically significant in all three tissues, FIG. 4
Procedure: Transmission Electron Microscopy. Eyes from drug and vehicle-treated mice were dissected and divided into anterior and posterior segments (n=2 eyes from 2 separate mice in each group). The iris and posterior part (choroid, RPE and retina) of the eyes were removed and fixed in 2% glutaraldehyde and 2% paraformaldehyde in 0.1 M sodium phosphate buffer (PB), pH 7.4 for about 12 hours at room temperature (RT). After a wash with rinsing buffer (RB, 4% sucrose and 0.15 mM CaCl2 in PB), pH 7.4 at 4° C., tissues were postfixed in 1% OsO4 in 0.1 M PB, pH 7.4 for 1 hour. After rinsing and dehydration, tissues were embedded in Durcupan resin for 72 hours at 60° C. One micron semi-sections were used for tissue orientation. About 70-90 nm ultrasections were also collected in 200 mesh grids and counterstained with 5% uranyl acetate and 0.3% lead citrate. […]
In order to quantitate the effect of NTBC on pigmentation in ocular tissues and to assess for sub-clinical changes in ocular pigmentation, transmission electron microscopy (TEM) of iris, retinal pigment epithelium (RPE), and choroid of treated and control mice (n=4 eyes from 2 mice for each group) was performed. […]

O=C1CCCC(=O)C1C(=O)c1ccc(C(F)(F)F)cc1[N+](=O)[O-] [NTBC, 2-(-2-nitro-4 trifluoromethylbenzoyl)-1,3 cyclohexanedione]
Phenotypic changes ([1]; 1 mg/kg every other day by oral gavage): no phenotypic changes
Coat color, fundus pigmentation, iris transillumination (coat and ocular pigmentation) ([1]; 4 mg/kg orally every other day, 4 mg/kg): no difference; also recorded: grossly unchanged
Number of pigmented melanosomes in iris, choroid and RPE (TEM) [2]: clear increase
